Measured values taken from patent US5385842A, “Anthraquinones as inhibitors of sulfide production from sulfate-reducing bacteria” (E. I. Du Pont de Nemours and Company, priority 1993, dated 1995).

Assays:
bacteria = settings: background art; cited from earlier work
[1] = tested on: Desulfovibrio desulfuricans G100A; assay: microbe, parasite or virus in culture; assay type: cell-based; settings: for inhibition at 30 ppm / inhibition at 10 ppm: Desulfovibrio desulfuricans, G100A, read-out: % Inhib. (inhibition of sulfide production)
[2] = tested on: sulfate-reducing bacteria; settings: background art; cited from earlier work
anaerobic bacteria = settings: background art; cited from earlier work
[3] = tested on: Bacillus, Nocardia, Streptomyces, Proteus; settings: background art; cited from earlier work
[4] = tested on: E. coli, Pseudomonas, Salmonella or Sarcina; settings: background art; cited from earlier work
[5] = tested on: B. aureus, B. subtilis, B. stearothermophilus and S. aureus; settings: background art; cited from earlier work
Desulfovibrio gigas = assay: Sulfide production by resting cells of D. gigas; assay type: cell-based; settings: for activity at 0.1 ppm / activity at 0.5 ppm / activity at 2 ppm / activity at 5 ppm: Desulfovibrio, 3 hours at 31° C.; for inhibition of sulfide production (in words): resting cells
Method: Experiments in this example were carried out using resting cells of Desulfovibrio gigas rather than growing cells as was the case for the autoanalyzer system employing the Desulfovibrio desulfuricans G100A strain. […] Thus the experiment examined a different organism, different test system, and a different physiological state for the phenomenon of anthraquinone inhibition of sulfide production by Desulfovibrio sp. Active compounds, as determined by the autoanalyzer, were evaluated in comparison with four additional compounds not evaluated in the autoanalyzer.
500 ml cultures of Desulfovibrio gigas were grown on standard BTZ-3 medium as previously described in Example 1 with 30 mM sodium lactate, 30 mM sodium sulfate and 30 mM sodium fumarate. The culture was harvested after 24 h of growth at 31° C. by centrifugation at 8000 rpm in a GSA Sorvall rotor for 20 minutes. The cell pellet was resuspended in 30 ml of incubation assay mixture of the following composition: 50 mM HEPES buffer pH 7 buffer, 2.5 mM sodium lactate, 2.5 mM sodium sulfate. This suspension was centrifuged again at 10,000 rpm in a Sorvall SS-34 rotor for 5 minutes. The resulting cell pellet was resuspended in 5 ml of incubation assay buffer. Cell densities were generally near 10e10 cells/mi.
The samples were assayed for production in the presence of anthraquinones. 200 ul of the cell suspension was added to 1.2 ml of incubation assay mixture in a 5 ml capacity test tube. The tube was gassed with hydrogen gas for 20 minutes then the anthraquinones were added as ethanolic solutions, the tubes were then gassed with hydrogen again for 5 minutes. The reaction mixtures were then incubated for 3 hours at 31° C. The reactions were stopped by the addition of 200 ul of 1N sodium hydroxide. After 20 minutes the alkaline mixtures were centrifuged in a table top microfuge for 4 minutes at 14,000 rpm to remove cells and cell debris. The supernatant was then assayed for sulfide using the ferric chloride-DPD reagent system as described by Siegel et al., Anal. Blochem., 11:126-132, 1965, herein incorporated by reference.

D. desulfuricans G100A [6] = assay: Effect of dithionite-reduced anthraquinones on growth of D. desulfuricans G100A; assay type: cell-based
Method: Three anthraquinones, 1,8-dihydroxy-, 1-chloro-, and 3-chloro-2-carboxy- were prepared as 1 ml of 1000 ppm solutions in acetone for the first two compounds or water for the third. These solutions were then treated with 1 mg of the strong reducing agent, sodium dithionite. 50 ul of each solution (for a final culture concentration of 5 ppm) was used immediately to treat growing cultures of D. desulfuricans G100A in BTZ-3 medium as defined in Example 1. The compounds were added to the 10 ml cultures at 15 h of growth.

[7] = tested on: D. desulfuricans #ATCC27774; assay: Respiration rate (hydrogen gas uptake) with sulfate as electron acceptor; settings: Desulfovibrio desulfuricans, ATCC27774, 4 h, pH 7, read-out: Gas Uptake (as percent of control)
D. desulfuricans G100A [8] = assay: Growth of D. desulfuricans G100A after addition of inhibitor at 12 h; assay type: cell-based
Method: Four 10 ml culture tubes of BTZ-3 medium as defined in Example 1 supplemented with sodium lactate (40 mM) and sodium sulfate (30 mM) and 0.5 ml of reducing agent were inoculated with 100 ul of a fully grown suspension of D. desulfuricans G100A. The culture was allowed to grow and the optical density at 660 nm was monitored until the cells entered into exponential growth (approx. 12-15 h, O.D. 660=0.1-0.2). At this time 100 ul of a 300 ppm solution of 1,8 dihydroxyanthraquinone, 1-chloranthraquinone or 3-chloro-2-anthraquinone carboxylic acid, respectively, was added to one of the tubes. The ethanol:water (80:20) solvent (100 μl ) was added to the fourth tube to serve as an uninhibited control.
#3 ppm inhibitor added at 12 hours

[9] = 0 h, before addition of 5 ppm dithionite-reduced compound at 15 h, control 0.02
[10] = 2 h, before addition of 5 ppm dithionite-reduced compound at 15 h, control 0.02
[11] = 12 h, before addition of 5 ppm dithionite-reduced compound at 15 h, control 0.08
[12] = 15 h, time of addition of 5 ppm dithionite-reduced compound, control 0.18
[13] = 17 h, 5 ppm dithionite-reduced compound added at 15 h, control 0.26
[14] = 20 h, 5 ppm dithionite-reduced compound added at 15 h, control 0.37
[15] = 25 h, 5 ppm dithionite-reduced compound added at 15 h, control 0.50
[16] = 30 h, 5 ppm dithionite-reduced compound added at 15 h, control 0.98
[17] = 45 h, 5 ppm dithionite-reduced compound added at 15 h, control 1.50
[18] = 0 h of growth, before addition of 3 ppm inhibitor at 12 h
[19] = 10 h of growth, before addition of 3 ppm inhibitor at 12 h
[20] = 12 h of growth, 3 ppm inhibitor added at 12 h
[21] = 14 h of growth, 3 ppm inhibitor added at 12 h
[22] = 18 h of growth, 3 ppm inhibitor added at 12 h
[23] = 20 h of growth, 3 ppm inhibitor added at 12 h
[24] = 24 h of growth, 3 ppm inhibitor added at 12 h
[25] = 29 h of growth, 3 ppm inhibitor added at 12 h
[26] = 34 h of growth, 3 ppm inhibitor added at 12 h
[27] = 62 h of growth, 3 ppm inhibitor added at 12 h
[28] = 92 h of growth, 3 ppm inhibitor added at 12 h

O=C(O)c1cc(O)c2c(c1)C(=O)c1cccc(O)c1C2=O [Rhein, 9,10-Dihydro-4,5-dihydroxy-9,10-dioxo-2-anthracenecarboxylic acid]
antibacterial activity (in words) (bacteria): active component of leaf extracts of Cassia sp.
inhibition at 30 ppm [1]: 48.6%

[H]/N=C(\N/C(=N/[H])NCCCCCCNC(=N)NC(=N)Nc1ccc(Cl)cc1)Nc1ccc(Cl)cc1 [Chlorhexidine, reference compound]
effective / use concentration against sulfate-reducers [2]: 1-10 ppm
inhibition of sulfide production (in words) [1]: inhibits sulfide production
% inhibition of sulfide formation ([1]; Table III, Example 3): 88.7%

Cc1ncc([N+](=O)[O-])n1CCO [metronidazole]
effectiveness (in words) (anaerobic bacteria): generally effective against anaerobic bacteria

N#CC(Br)(Br)C(N)=O [2,2-Dibromo-3-nitrilopropionamide]
effective / use concentration against sulfate-reducers [2]: 3-12 ppm

O=C1c2cc(O)cc(O)c2C(=O)c2c(O)ccc(O)c21 [1,4,6,8-tetrahydroxyanthraquinone]
antibacterial activity (in words) [3]: inhibited 4 species of Bacillus, one strain of Nocardia, one strain (out of four tested) of Streptomyces and one of the Gram negative Proteus
antibacterial activity (in words) [4]: did not affect any species of E. coli, Pseudomonas, Salmonella or Sarcina

O=C1c2ccccc2C(=O)c2c1ccc(O)c2O [1,2-Dihydroxyanthraquinone]
antibacterial activity (in words) [5]: either inactive against these strains or required concentrations in excess of 100 to 1000 ppm for inhibition
inhibition at 10 ppm [1]: 68.9%

N#Cc1cccc2c1C(=O)c1ccccc1C2=O [1-cyanoanthraquinone, 1-Cyanoanthraquinone]
activity at 0.1 ppm (Desulfovibrio gigas): 118%
activity at 0.5 ppm (Desulfovibrio gigas): 20%
activity at 2 ppm (Desulfovibrio gigas): 6.7%
activity at 5 ppm (Desulfovibrio gigas): 6.8%
inhibition of sulfide production (in words) (Desulfovibrio gigas): inhibitory effect

O=C(O)c1cc2c(cc1Cl)C(=O)c1ccccc1C2=O [2-Chloroanthraquinone-3-carboxylic acid, 3-Chloro-9,10-dihydro-9,10-dioxo-2-anthracenecarboxylic acid]
Optical Density @ 660 nm (D. desulfuricans G100A [6]; [9]): 0.02
Optical Density @ 660 nm (D. desulfuricans G100A [6]; [10]): 0.02
Optical Density @ 660 nm (D. desulfuricans G100A [6]; [11]): 0.07
Optical Density @ 660 nm (D. desulfuricans G100A [6]; [12]): 0.1
Optical Density @ 660 nm (D. desulfuricans G100A [6]; [13]): 0.15
Optical Density @ 660 nm (D. desulfuricans G100A [6]; [14]): 0.17
Optical Density @ 660 nm (D. desulfuricans G100A [6]; [15]): 0.17
Optical Density @ 660 nm (D. desulfuricans G100A [6]; [16]): 0.16
Optical Density @ 660 nm (D. desulfuricans G100A [6]; [17]): 0.22
activity at 0.6 ppm [7]: 79%
activity at 1.5 ppm [7]: 55%
activity at 3 ppm [7]: 41%
optical density reading at 660 nm (D. desulfuricans G100A [8]; [18]): .01
optical density reading at 660 nm (D. desulfuricans G100A [8]; [19]): .10
optical density reading at 660 nm (D. desulfuricans G100A [8]; [20]): .16
optical density reading at 660 nm (D. desulfuricans G100A [8]; [21]): .21
optical density reading at 660 nm (D. desulfuricans G100A [8]; [22]): .36
optical density reading at 660 nm (D. desulfuricans G100A [8]; [23]): .38
optical density reading at 660 nm (D. desulfuricans G100A [8]; [24]): .36
optical density reading at 660 nm (D. desulfuricans G100A [8]; [25]): .37
optical density reading at 660 nm (D. desulfuricans G100A [8]; [26]): .37
optical density reading at 660 nm (D. desulfuricans G100A [8]; [27]): .34
optical density reading at 660 nm (D. desulfuricans G100A [8]; [28]): .25
inhibition at 10 ppm [1]: 100%

Nc1ccc(O)c2c1C(=O)c1ccccc1C2=O [1-Amino-4-hydroxyanthraquinone]
antibacterial activity (in words) [5]: either inactive against these strains or required concentrations in excess of 100 to 1000 ppm for inhibition
inhibition at 30 ppm [1]: 54.3%

O=C1c2ccccc2C(=O)c2c(Cl)cccc21 [1-Chloroanthraquinone]
Optical Density @ 660 nm (D. desulfuricans G100A [6]; [9]): 0.02
Optical Density @ 660 nm (D. desulfuricans G100A [6]; [10]): 0.02
Optical Density @ 660 nm (D. desulfuricans G100A [6]; [11]): 0.08
Optical Density @ 660 nm (D. desulfuricans G100A [6]; [12]): 0.15
Optical Density @ 660 nm (D. desulfuricans G100A [6]; [13]): 0.20
Optical Density @ 660 nm (D. desulfuricans G100A [6]; [14]): 0.21
Optical Density @ 660 nm (D. desulfuricans G100A [6]; [15]): 0.22
Optical Density @ 660 nm (D. desulfuricans G100A [6]; [16]): 0.22
Optical Density @ 660 nm (D. desulfuricans G100A [6]; [17]): 0.24
activity at 0.6 ppm [7]: 74%
activity at 1.5 ppm [7]: 50%
activity at 3 ppm [7]: 38%
activity at 0.1 ppm (Desulfovibrio gigas): 81%
activity at 0.5 ppm (Desulfovibrio gigas): 26%
activity at 2 ppm (Desulfovibrio gigas): 1.6%
activity at 5 ppm (Desulfovibrio gigas): 1.3%
inhibition of sulfide production (in words) (Desulfovibrio gigas): inhibitory properties
optical density reading at 660 nm (D. desulfuricans G100A [8]; [18]): .01
optical density reading at 660 nm (D. desulfuricans G100A [8]; [19]): .11
optical density reading at 660 nm (D. desulfuricans G100A [8]; [20]): .12
optical density reading at 660 nm (D. desulfuricans G100A [8]; [21]): .12
optical density reading at 660 nm (D. desulfuricans G100A [8]; [22]): .27
optical density reading at 660 nm (D. desulfuricans G100A [8]; [23]): .32
optical density reading at 660 nm (D. desulfuricans G100A [8]; [24]): .32
optical density reading at 660 nm (D. desulfuricans G100A [8]; [25]): .30
optical density reading at 660 nm (D. desulfuricans G100A [8]; [26]): .32
optical density reading at 660 nm (D. desulfuricans G100A [8]; [27]): .26
optical density reading at 660 nm (D. desulfuricans G100A [8]; [28]): .23
inhibition at 30 ppm [1]: 20.8%

O=C1c2ccccc2C(=O)c2cc(C(F)(F)F)ccc21 [2-trifluoromethylanthraquinone, 2-Trifluoromethylanthraquinone]
activity at 0.1 ppm (Desulfovibrio gigas): 99%
activity at 0.5 ppm (Desulfovibrio gigas): 17%
activity at 2 ppm (Desulfovibrio gigas): 1.7%
activity at 5 ppm (Desulfovibrio gigas): 1.5%
inhibition of sulfide production (in words) (Desulfovibrio gigas): inhibitory effect

molybdate
effective / use concentration against sulfate-reducers [2]: 1000-4000 ppm
